# In patent US12325710B2, “Substituted 1,2,3,4,5,6-hexahydroazepino[4,5-b]indoles for treating brain disorders” (priority 2019, dated 2025):
# “Also recorded” adds a separate entry of the source.
# Key:
# 5HT2A sensor = 5HT2A sensor assay (sLight1.3s HEK293T cells), agonist and antagonist mode; type: cell-based; conditions: for activation of 5HT2A sensor, agonist mode / competition with 5HT binding at 5HT2A sensor, antagonist mode: 10 μM of compound; for activation of 5HT2A sensor, agonist mode: FIG. 16; for activation of 5HT2A sensor, agonist mode, dose response: FIG. 15; for competition with 5HT binding at 5HT2A sensor, antagonist mode: FIG. 18
# Experimental: 5HT2A Sensor Assays. HEK293T (ATCC) 5HT2A sensor stable line (sLight1.3s) was generated via lentiviral transduction of HIV-EF1α-sLight1.3 and propagated from a single colony. Lentivirus was produced using 2nd generation lentiviral plasmids pHIV-EF1α-sLight1.3, pHCMV-G, and pCMV-deltaR8.2.
# For the screening of the 41 compounds, sLight1.3s cells were plated in 96-well plates at a density of 40000 24-hours prior to imaging. On the day of imaging, compounds solubilized in DMSO were diluted from the 100 mM stock solution to working concentrations of 1 mM, 100 μM and 1 μM with a DMSO concentration of 1%. Immediately prior to imaging, cells growing in DMEM (Gibco) were washed 2× with HBSS (Gibco) and in agonist mode 180 μL of HBSS or in antagonist mode 160 μL of HBSS was added to each well after the final wash. For agonist mode, images were taken before and after the addition of the 20 μL compound working solution into the wells containing 180 μL HBSS. This produced final compound concentrations of 100 μM, 10 μM and 100 nM with a DMSO concentration of 0.1%. For antagonist mode, images were taken before and after addition of 20 μL of 900 nM 5-HT and again after 20 μL of the compound working solutions to produce final concentrations of 100 nM for 5HT and 100 μM, 10 μM and 100 nM for the compounds with a DMSO concentration of 0.1%. Each compound was tested in triplicates (3 wells) for each concentration (100 μM, 10 μM and 100 nM). Additionally, within each plate, 100 nM 5HT and 0.1% DMSO controls were also imaged.
# For each well, the cellular membrane where the 5HT2A sensor is targeted was autofocused using the adaptive focus controls and 5 images from different regions within the well were taken with each image processed from a 2×2 binning.
# For data processing, the membranes from each image was segmented and analyzed using a custom algorithm written in MATLAB producing a single raw fluorescence intensity value. For each well the 5 raw fluorescence intensity values generated from the 5 images were averaged and the change in fluorescence intensity (dFF) was calculated as: dFF=(Fsat−Fapo)/Fapo
# For both agonist and antagonist modes, the fluorescence intensity values before compound addition in HBSS only were used as the Fapo values while the fluorescence intensity values after compound addition were used as the Fsat values.
# For agonist mode, data are as percent activation relative to 5HT, where 0 is the average of the DMSO wells and 100 is the average of the 100 μM 5HT wells.
# C57BL/6J mice = assay: Head-twitch response (HTR) assay; conditions: intraperitoneal; fumarate salts; 5-MeO-DMT 10 mg/kg as positive control
# 5-HT2B receptors = 5-HT2B receptors (Homo sapiens, UniProt P41595); assay: 5-HT2B Gq-mediated calcium flux functional assay; type: cell-based
# Sequence of 5-HT2B receptors (P41595 whole entry, canonical isoform): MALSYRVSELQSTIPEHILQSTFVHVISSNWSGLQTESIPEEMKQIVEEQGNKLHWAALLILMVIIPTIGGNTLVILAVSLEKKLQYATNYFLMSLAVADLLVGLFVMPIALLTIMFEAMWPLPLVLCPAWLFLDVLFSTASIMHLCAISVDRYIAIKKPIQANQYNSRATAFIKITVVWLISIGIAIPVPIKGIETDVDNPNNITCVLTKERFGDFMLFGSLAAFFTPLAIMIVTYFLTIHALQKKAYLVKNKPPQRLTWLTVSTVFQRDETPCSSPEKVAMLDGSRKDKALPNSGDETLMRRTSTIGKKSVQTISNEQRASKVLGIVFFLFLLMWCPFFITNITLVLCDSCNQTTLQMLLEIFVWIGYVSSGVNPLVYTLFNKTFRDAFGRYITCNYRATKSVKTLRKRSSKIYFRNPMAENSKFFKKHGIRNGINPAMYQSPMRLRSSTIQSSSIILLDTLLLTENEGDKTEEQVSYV
# Experimental: Serotonin and Opioid Receptor Functional Assays. Functional assay screens at 5-HT and opioid receptors were performed in parallel using the same compound dilutions and 384-well format high-throughput assay platforms. Assays assessed activity at all human isoforms of the receptors, except where noted for the mouse 5-HT2A receptor. Receptor constructs in pcDNA vectors were generated from the Presto-Tango GPCR library with minor modifications. All compounds were serially diluted in drug buffer (HBSS, 20 mM HEPES, pH 7.4 supplemented with 0.1% bovine serum albumin and 0.01% ascorbic acid) and dispensed into 384-well assay plates using a FLIPR^TETRA (Molecular Devices). Every plate included a positive control such as 5-HT (for all 5-HT receptors), DADLE (DOR), salvinorin A (KOR), and DAMGO (MOR). For measurements of 5-HT2A, 5-HT2B, and 5-HT2C Gq-mediated calcium flux function, HEK Flp-In 293 T-Rex stable cell lines (Invitrogen) were loaded with Fluo-4 dye for one hour, stimulated with compounds and read for baseline (0-10 seconds) and peak fold-over-basal fluorescence (5 minutes) at 25° C. on the FLIPR^TETRA. For measurement of 5-HT6 and 5-HT7a functional assays, Gs-mediated cAMP accumulation was detected using the split-luciferase GloSensor assay in HEKT cells measuring luminescence on a Microbeta Trilux (Perkin Elmer) with a 15 min drug incubation at 25° C. For 5-HT1A, 5-HT1B, 5-HT1F, MOR, KOR, and DOR functional assays, Gi/o-mediated cAMP inhibition was measured using the split-luciferase GloSensor assay in HEKT cells, conducted similarly as above, but in combination with either 0.3 μM isoproterenol (5-HT1A, 5-HT1B, 5-HT1F) or 1 μM forskolin (MOR, KOR, and DOR) to stimulate endogenous cAMP accumulation. For measurement of 5-HT1D, 5-HT1E, 5-HT4, and 5-HT5A functional assays, β-arrestin2 recruitment was measured by the Tango assay utilizing HTLA cells expressing TEV fused-β-arrestin2, as described previously with minor modifications. […]
# larval zebrafish = assay: Larval zebrafish movement activity during a battery of light and acoustic stimuli; conditions: for behavioral phenotype with increasing concentration versus vehicle and lethal control (eugenol, 100 μM): 1 h treatment, concentration-response; for behavioral phenotype at highest concentration versus lethal control: 200 μM
# Text: Stimuli applied over time are indicated under the heatmaps. Colors indicate bright LED light of respective colors, black traces represent the waveforms of acoustic stimuli, and gray vertical lines indicate physical tapping as secondary acoustic stimuli.
# Response is […] proportional to classification accuracy; 0-20% indicates no ability and 100% indicates perfect classification. […] The solid line denotes the median and the shading denotes a 95th percentile confidence interval calculated by bootstrap. N=8 wells/condition (64 animals/condition).
# [1] = tested on: rat embryonic cortical neurons; assay: Dendritogenesis (Sholl analysis) in cultured cortical neurons; type: cell-based; conditions: 1 h treatment followed by 71 h growth; compared to vehicle (VEH)
# Experimental: Embryonic rat cortical neurons were treated for a short period of time (1 h) followed by a suitable growth period (71 h) to measure the psychoplastogenic effects of the compounds described herein. […] Therefore, the effects of ibogalogs 8-17 on dendritic growth was assessed.
# Dendritogenesis Experiments. For the dendritogenesis experiments conducted using cultured cortical neurons, timed pregnant Sprague Dawley rats were obtained from Charles River Laboratories (Wilmington, MA). Full culturing, staining, and analysis details were performed as previously described. (Dunlap, L. et al., 2019)
# [2] = tested on: mouse primary sensory cortex; assay: In vivo spine dynamics, transcranial 2-photon imaging; conditions: 24 h after i.p. dose; TBG 50 mg/kg, DOI 10 mg/kg
# Experimental: In Vivo Spine Dynamics. Male and female Thy1-GFP-M line mice (n=5 per condition) were purchased from The Jackson Laboratory (JAX #007788) and maintained in UCSC animal facilities according to an IACUC approved protocol. In vivo transcranial two-photon imaging and data analysis were performed as previously described. Briefly, mice were anesthetized with an intraperitoneal (i.p.) injection of a mixture of ketamine (87 mg/kg) and xylazine (8.7 mg/kg). A small region of the exposed skull was manually thinned down to 20-30 μm for optical access. Spines on apical dendrites in mouse primary sensory cortices were imaged using a Bruker Ultima IV two-photon microscope equipped with an Olympus water-immersion objective (40×, NA=0.8) and a Ti:Sapphire laser (Spectra-Physics Mai-Tai, excitation wavelength 920 nm). Images were taken at a zoom of 4.0 (pixel size 0.143×0.143 μm) and Z-step size of 0.7 μm. The mice received an i.p. injection (injection volume=5 mL/kg) of DOI (10 mg/kg) or TBG (50 mg/kg) immediately after they recovered from anesthesia given prior to the first imaging session. The animals were re-imaged 24 h after drug administration. Dendritic spine dynamics were analyzed using ImageJ. Spine formation and elimination were quantified as percentages of spine number on day 0.
# zebrafish = assay: Zebrafish developmental toxicity assay; type: in vivo; conditions: 100 μM; 2 and 5 dpf
# [3] = tested on: larval zebrafish expressing GCaMP5; assay: Seizurogenic potential in larval zebrafish expressing GCaMP5; type: in vivo; conditions: 200 μM; PTZ positive control
# Experimental: Transgenic larval zebrafish expressing GCaMP5G were immobilized in agarose, treated with compounds, and imaged over time. The known seizure-inducing compound PTZ was used as a positive control. All compounds were treated at 200 μM (n=2 per condition).
molecule,measurement,setting,value
"COc1ccc2[nH]cc(CCN(C)C)c2c1 [Compound 5-MeO-DMT, 5-methoxy-N,N-dimethyltryptamine, reference compound]","activation of 5HT2A sensor, agonist mode",5HT2A sensor,activate the 5HT2A sensor assay in agonist mode
same,"activation of 5HT2A sensor, agonist mode, dose response",5HT2A sensor,activate a 5HT2A sensor assay in agonist mode
same,hallucinogenic potential (head-twitch response),C57BL/6J mice,robust HTR
same,activity mode at 5-HT2B receptors,5-HT2B receptors,agonists of 5-HT2B receptors
CCN(CC)CCc1c[nH]c2cc(F)ccc12 [Compound 6-F-DET],"activation of 5HT2A sensor, agonist mode",5HT2A sensor,do not activate the 5HT2A sensor assay in agonist mode
same,"competition with 5HT binding at 5HT2A sensor, antagonist mode",5HT2A sensor; antagonist mode,compete with 5HT binding to 5HT2A
CCN(CC)C(=O)[C@@H]1C=C2c3cccc4[nH]c(Br)c(c34)C[C@H]2N(C)C1 [BOL148],"activation of 5HT2A sensor, agonist mode",5HT2A sensor,do not activate the 5HT2A sensor assay in agonist mode
same,"competition with 5HT binding at 5HT2A sensor, antagonist mode",5HT2A sensor; antagonist mode,compete with 5HT binding to 5HT2A
"O=C1NCCN1CCN1CCC(c2cn(-c3ccc(F)cc3)c3ccc(Cl)cc23)CC1 [sertindole, reference compound]","behavioral phenotype with increasing concentration versus vehicle and lethal control (eugenol, 100 μM)",larval zebrafish,"more phenotypically distinct from the vehicle control, while more closely resembling the lethal control"
"CC(C)(C)c1ccc(C(O)CCCN2CCC(C(O)(c3ccccc3)c3ccccc3)CC2)cc1 (stereo not drawn) [terfenadine, reference compound]","behavioral phenotype with increasing concentration versus vehicle and lethal control (eugenol, 100 μM)",larval zebrafish,"more phenotypically distinct from the vehicle control, while more closely resembling the lethal control"
CCC1CC2CCC1N(CCc1c[nH]c3ccc(O)cc13)C2 (stereo not drawn) [Compound 11b],psychoplastogenic effect on dendritic growth (Sholl analysis),[1],weak psychoplastogens or did not promote neuronal growth
COc1ccc2c(CCN(C)C)c[nH]c2c1 [Compound 6-MeO-DMT],"activation of 5HT2A sensor, agonist mode",5HT2A sensor,do not activate the 5HT2A sensor assay in agonist mode
same,"activation of 5HT2A sensor, agonist mode, dose response",5HT2A sensor,do not
same,"competition with 5-HT at 5HT2A sensor, antagonist mode, dose response","5HT2A sensor; antagonist mode, FIG. 17",compete off 5-HT
"CCN(CC)C(=O)[C@@H]1C=C2c3cccc4[nH]cc(c34)C[C@H]2N(C)C1 [LSD, lysergic acid diethylamide]","activation of 5HT2A sensor, agonist mode",5HT2A sensor,activate the 5HT2A sensor assay in agonist mode
same,"activation of 5HT2A sensor, agonist mode, dose response",5HT2A sensor,activate a 5HT2A sensor assay in agonist mode
"O=C(CCCN1CCC(O)(c2ccc(Cl)cc2)CC1)c1ccc(F)cc1 [haloperidol, reference compound]","behavioral phenotype with increasing concentration versus vehicle and lethal control (eugenol, 100 μM)",larval zebrafish,"more phenotypically distinct from the vehicle control, while more closely resembling the lethal control"
CN(C)CCc1c[nH]c2ccccc12 [DMT],"activation of 5HT2A sensor, agonist mode",5HT2A sensor,activate the 5HT2A sensor assay in agonist mode
"O=C(c1ccc(F)cc1)C1CCN(CCn2c(=O)[nH]c3ccccc3c2=O)CC1 [Ketanserin, ketanserin]","activation of 5HT2A sensor, agonist mode",5HT2A sensor,do not activate the 5HT2A sensor assay in agonist mode
same,"competition with 5HT binding at 5HT2A sensor, antagonist mode",5HT2A sensor; antagonist mode,compete with 5HT binding to 5HT2A
CNC(C)Cc1ccc2c(c1)OCO2 (stereo not drawn) [R-MDMA],"activation of 5HT2A sensor, agonist mode",5HT2A sensor,do not activate the 5HT2A sensor assay in agonist mode
ibogaine [reference compound],psychoplastogenic effect on dendritic growth (Sholl analysis),[1],demonstrates psychoplastogenic effects
"COc1cc(CC(C)N)c(OC)cc1I (stereo not drawn) [DOI, 2,5-dimethoxy-4-iodoamphetamine, reference compound]","activation of 5HT2A sensor, agonist mode",5HT2A sensor,activate the 5HT2A sensor assay in agonist mode
same,spine elimination,[2],no effect on spine elimination; also recorded: Neither TBG nor DOI affected spine elimination
same,spine formation,[2],increased spine formation
"CC[C@H]1C[C@H]2C[C@H]3c4[nH]c5ccc(O)cc5c4CCN(C2)[C@@H]13 [noribogaine, reference compound]","malformations, mortality, non-viable fish",zebrafish,"greater survival, but the majority of the animals exhibited yolk sac and/or pericardial edemas"
same,behavioral phenotype at highest concentration versus lethal control,larval zebrafish,phenotypically consistent with the lethal control
same,"behavioral phenotype with increasing concentration versus vehicle and lethal control (eugenol, 100 μM)",larval zebrafish,"more phenotypically distinct from the vehicle control, while more closely resembling the lethal control"
"C1CCc2nnnn2CC1 [PTZ, pentylenetetrazole, reference compound]",seizure induction (neural activity),[3],excessive neural activity
"O=S1OCC2C(CO1)C1(Cl)C(Cl)=C(Cl)C2(Cl)C1(Cl)Cl (stereo not drawn) [endosulfan, reference compound]",behavioral phenotype at highest concentration versus lethal control,larval zebrafish,phenotypically consistent with the lethal control
